Experimental data published in the Kinase Knowledgebase extract (Sharma et al. 2016).
pIC50: −log10 of the molar value.

What follows are compounds tested against PIK3CG (human) (UniProt P48736) (assay: Inhibition of PIK3CG Kinase Activity).
PIK3CG (human), sequence (P48736 whole entry, looked up): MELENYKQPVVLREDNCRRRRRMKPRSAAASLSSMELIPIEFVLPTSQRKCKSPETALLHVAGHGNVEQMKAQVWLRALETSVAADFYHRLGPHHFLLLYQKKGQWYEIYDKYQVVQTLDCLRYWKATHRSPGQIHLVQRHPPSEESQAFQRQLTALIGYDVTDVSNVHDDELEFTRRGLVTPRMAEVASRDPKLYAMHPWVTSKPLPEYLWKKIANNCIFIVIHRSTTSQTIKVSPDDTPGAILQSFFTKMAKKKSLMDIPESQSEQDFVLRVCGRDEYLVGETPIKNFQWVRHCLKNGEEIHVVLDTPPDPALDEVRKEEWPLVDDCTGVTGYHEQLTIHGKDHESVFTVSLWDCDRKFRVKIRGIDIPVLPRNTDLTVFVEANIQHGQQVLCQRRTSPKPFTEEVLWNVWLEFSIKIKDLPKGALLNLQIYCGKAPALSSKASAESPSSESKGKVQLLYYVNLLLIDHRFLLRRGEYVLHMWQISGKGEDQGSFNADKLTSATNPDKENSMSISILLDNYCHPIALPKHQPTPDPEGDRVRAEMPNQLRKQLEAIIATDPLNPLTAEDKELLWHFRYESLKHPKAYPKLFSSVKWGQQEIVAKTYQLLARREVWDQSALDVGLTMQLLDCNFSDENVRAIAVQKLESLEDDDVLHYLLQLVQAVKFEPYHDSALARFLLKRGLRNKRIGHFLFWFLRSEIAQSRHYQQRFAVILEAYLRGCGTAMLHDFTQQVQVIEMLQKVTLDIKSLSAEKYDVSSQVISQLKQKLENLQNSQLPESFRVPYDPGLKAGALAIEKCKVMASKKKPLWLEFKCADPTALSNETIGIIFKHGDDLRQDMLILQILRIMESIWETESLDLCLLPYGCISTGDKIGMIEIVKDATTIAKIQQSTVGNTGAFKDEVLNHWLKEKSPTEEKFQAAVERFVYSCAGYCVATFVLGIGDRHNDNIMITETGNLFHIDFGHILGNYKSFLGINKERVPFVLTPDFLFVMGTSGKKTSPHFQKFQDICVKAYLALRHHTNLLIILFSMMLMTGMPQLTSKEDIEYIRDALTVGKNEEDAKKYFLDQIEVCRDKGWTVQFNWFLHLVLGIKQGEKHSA

pIC50, > 6.22:
CC(=O)Nc1nc2c(s1)-c1c(c(C3CC3)nn1-c1ccc(C(=O)N[C@H]3CC[C@@H](N(C)CC4CC4)CC3)c(Cl)c1)CC2
CC(=O)Nc1nc2c(s1)-c1c(c(C3CC3)nn1-c1ccc(C(=O)N[C@H]3CC[C@@H](N(C)C)CC3)cc1Cl)CC2
CNC(=O)c1ccc(-n2nc(C3CCCC3)c3c2-c2sc(NC(C)=O)nc2CC3)c(Cl)c1
CC(=O)Nc1nc2c(s1)-c1c(c(C3(C)CC3)nn1-c1ccc(C(=O)NC3CCN(CC4CCCC4)CC3)cc1Cl)CC2
CC(=O)Nc1nc2c(s1)-c1c(c(C3CC3)nn1-c1ccc(C(=O)N[C@H]3CC[C@@H](N4CCOCC4)CC3)c(F)c1)CC2
COc1cc(-n2nc(C3CC3)c3c2-c2sc(NC(C)=O)nc2CC3)ccc1C(=O)N[C@H]1CC[C@@H](N2CCCC2)CC1
CC(=O)Nc1nc2c(s1)-c1c(c(C3CC3)nn1-c1ccc(C(=O)N[C@@H]3CCN(C4CCCC4)C3)cc1Cl)CC2
CC(=O)Nc1nc2c(s1)-c1c(c(C3CC3)nn1-c1ccc(C(=O)N(C)[C@@H]3CCN(CC4CCCC4)C3)cc1Cl)CC2
CC(=O)Nc1nc2c(s1)-c1c(c(C3CC3)nn1-c1ccc(C(=O)N[C@H]3CC[C@@H](N4CCOCC4)CC3)c(Cl)c1)CC2
CC(=O)Nc1nc2c(s1)-c1c(c(C3CC3)nn1-c1ccc(C(=O)N3CC[C@@H](CN4CCCC4)C3)c(Cl)c1)CC2
CC(=O)Nc1nc2c(s1)-c1c(c(C3CC3)nn1-c1ccc(C(=O)N3CCC(N(C)C4CCCC4)CC3)c(Cl)c1)CC2
CC(=O)Nc1nc2c(s1)-c1c(c(C3CC3)nn1-c1ccc(C(=O)N(C)[C@H]3CC[C@@H](N(C)CC4CCCC4)CC3)c(C)c1)CC2
CC(=O)Nc1nc2c(s1)-c1c(c(C3CC3)nn1-c1ccc(C(=O)N[C@@H]3CCN(C4CCCCC4)C3)cc1Cl)CC2
CC(=O)Nc1nc2c(s1)-c1c(c(C3CC3)nn1[C@H]1CC[C@@H](C(=O)NC3CCN(C4CCCC4)CC3)CC1)CC2
CCCN1CCC(C(=O)Nc2ccc(-n3nc(C4CC4)c4c3-c3sc(NC(C)=O)nc3CC4)c(Cl)c2)CC1
CC(=O)Nc1nc2c(s1)-c1c(c(C3CCCC3)nn1-c1ccccc1Cl)CC2
CNC(=O)c1ccc(-n2nc(C3CC3)c3c2-c2sc(NC(C)=O)nc2CC3)c(Cl)c1
CC(=O)Nc1nc2c(s1)-c1c(c(C3CC3)nn1-c1ccc(C(=O)N[C@H]3CC[C@@H](N4CCCCC4)CC3)cc1Cl)CC2
CC(=O)Nc1nc2c(s1)-c1c(c(C3CC3)nn1-c1ccc(C(=O)N[C@H]3CC[C@@H](N4CCOCC4)CC3)cc1Cl)CC2
CC(=O)Nc1nc2c(s1)-c1c(c(C3CC3)nn1-c1ccc(C(=O)NC3CCN(C4CCCCC4)CC3)cc1F)CC2
CC(=O)Nc1nc2c(s1)-c1c(c(C3CC3)nn1-c1ccc(C(=O)N(C)C3CCN(C4CCCC4)CC3)c(Cl)c1)CC2
CC(=O)Nc1nc2c(s1)-c1c(c(C3CC3)nn1-c1ccc(C(=O)N3CCC(N(C)C4CCCC4)CC3)c(C)c1)CC2
CC(=O)Nc1nc2c(s1)-c1c(c(C3CC3)nn1-c1ccc(C(=O)NC[C@@H]3CCN(CC4CCCC4)C3)c(Cl)c1)CC2
CC(=O)Nc1nc2c(s1)-c1c(c(C3CC3)nn1-c1ccccc1C)CC2
CCN(C(=O)c1ccc(-n2nc(C3CC3)c3c2-c2sc(NC(C)=O)nc2CC3)cc1C)[C@H]1CC[C@@H](N2CCCC2)CC1
CC(=O)Nc1nc2c(s1)-c1c(c(C3CC3)nn1-c1ccc(C(=O)N(C)[C@H]3CC[C@@H](N(C)CC4CC4)CC3)c(F)c1)CC2
CC(=O)Nc1nc2c(s1)-c1c(c(C3CC3)nn1C1CCN(C(=O)[C@H]3CC[C@@H](N4CCCC4)CC3)CC1)CC2
CC(=O)Nc1nc2c(s1)-c1c(c(C3CCCC3)nn1-c1ccc(C(=O)NC3CCN(C4CCOCC4)CC3)cc1Cl)CC2
CC(=O)Nc1nc2c(s1)-c1c(c(C3CC3)nn1-c1ccccc1C(F)(F)F)CC2
CC(=O)Nc1nc2c(s1)-c1c(c(C3CC3)nn1-c1ccc(NC(=O)C3CCN(C4CCCC4)CC3)cc1Cl)CC2
CC(=O)Nc1nc2c(s1)-c1c(c(C3CC3)nn1-c1ccc(C(=O)NC3CCN(C4CCOCC4)CC3)c(Cl)c1)CC2
CC(=O)Nc1nc2c(s1)-c1c(c(C3CCC3)nn1-c1ccc(C(=O)N(C)[C@H]3CC[C@@H](N4CCCC4)CC3)cc1Cl)CC2
CCCN1CCC(NC(=O)C2CCC(n3nc(C4CC4)c4c3-c3sc(NC(C)=O)nc3CC4)CC2)CC1 (centres undefined)
COc1cc(-n2nc(C3CC3)c3c2-c2sc(NC(C)=O)nc2CC3)ccc1C(=O)N(C)C1CCC(N2CCCC2)CC1 (centres undefined)
CC(=O)Nc1nc2c(s1)-c1c(c(C3CC3)nn1-c1ccc(C(=O)N(C)[C@@H]3CCN(CC4CCCC4)C3)c(F)c1)CC2
CCCN1CCC(NC(=O)c2ccc(-n3nc(C4CCC4)c4c3-c3sc(NC(C)=O)nc3CC4)c(Cl)c2)CC1
CCCN1CC[C@@H](NC(=O)c2ccc(-n3nc(C4CC4)c4c3-c3sc(NC(C)=O)nc3CC4)cc2C)C1
CNC(=O)c1ccc(-n2nc(C3CCC3)c3c2-c2sc(NC(C)=O)nc2CC3)c(Cl)c1
CC(=O)Nc1nc2c(s1)-c1c(c(C3CC3)nn1-c1ccc(C(=O)N[C@H]3CC[C@@H](C(N)=O)CC3)cc1Cl)CC2
CC(=O)Nc1nc2c(s1)-c1c(c(C3CC3)nn1-c1ccc(C(=O)N[C@@H]3CCN(CC4CCCC4)C3)c(Cl)c1)CC2
CC(=O)Nc1nc2c(s1)-c1c(c(C3CC3)nn1-c1ccc(C(=O)N[C@@H]3CCN(C4CCCC4)C3)cc1C)CC2
CC(=O)Nc1nc2c(s1)-c1c(c(C3CC3)nn1-c1ccc(C(=O)N3CCC(N(C)C4CCCC4)CC3)cc1Cl)CC2
CC(=O)Nc1nc2c(s1)-c1c(c(C3(C)CC3)nn1-c1ccc(C(=O)N(C)[C@H]3CC[C@@H](N4CCCC4)CC3)cc1Cl)CC2
CCCN1CC[C@@H](NC(=O)c2ccc(-n3nc(C4CC4)c4c3-c3sc(NC(C)=O)nc3CC4)c(C)c2)C1
CC(=O)Nc1nc2c(s1)-c1c(c(C3CC3)nn1-c1ccc(C(=O)NC3CCN(C4CCCCC4)CC3)c(Cl)c1)CC2
CC(=O)Nc1nc2c(s1)-c1c(c(C3CC3)nn1-c1ccc(C(=O)NC[C@@H]3CCCN3)c(Cl)c1)CC2
CC(=O)Nc1nc2c(s1)-c1c(c(C3CC3)nn1-c1ccc(C(=O)N[C@@H]3CCN(CC4CCCC4)C3)cc1Cl)CC2
CC(=O)Nc1nc2c(s1)-c1c(c(C3CC3)nn1-c1ccc(C(=O)N[C@H]3CC[C@@H](N4CCCC4)CC3)cc1F)CC2
CC(=O)Nc1nc2c(s1)-c1c(c(C3CC3)nn1-c1ccc(C(=O)N[C@H]3CC[C@@H](N(C)CC4CC4)CC3)c(F)c1)CC2
CC(=O)Nc1nc2c(s1)-c1c(c(C3CC3)nn1-c1ccc(C(=O)N[C@H]3CC[C@@H](N4CCCC4)CC3)c(F)c1)CC2
CC(=O)Nc1nc2c(s1)-c1c(c(C3CC3)nn1-c1ccc(C(=O)NC3CCN(C4CCCCC4)CC3)c(C)c1)CC2
CC(=O)Nc1nc2c(s1)-c1c(c(C3CCC3)nn1-c1ccc(C(=O)NC3CCN(C4CCCC4)CC3)cc1Cl)CC2
CNC(=O)c1ccc(-n2nc(C3(C)CC3)c3c2-c2sc(NC(C)=O)nc2CC3)c(Cl)c1
CC(=O)Nc1nc2c(s1)-c1c(c(C3CC3)nn1-c1ccc(C(=O)NC3CCN(CC4CCCC4)CC3)c(F)c1)CC2
CC(=O)Nc1nc2c(s1)-c1c(c(C3CC3)nn1-c1ccc(C(=O)N(C)C3CCC(N4CCCC4)CC3)cc1Cl)CC2 (centres undefined)
COc1cc(-n2nc(C3CC3)c3c2-c2sc(NC(C)=O)nc2CC3)ccc1C(=O)N1CCC(N2CCCC2)CC1
CC(=O)Nc1nc2c(s1)-c1c(c(C3CC3)nn1C1CCC(C(=O)N[C@H]3CC[C@@H](N4CCCC4)CC3)CC1)CC2 (some centres undefined)
CC(=O)Nc1nc2c(s1)-c1c(c(C3CC3)nn1-c1ccc(N)cc1Cl)CC2
CC(=O)Nc1nc2c(s1)-c1c(c(C3CC3)nn1-c1ccc(C(=O)N(C)[C@@H]3CCN(CC4CCCC4)C3)c(Cl)c1)CC2
CC(=O)Nc1nc2c(s1)-c1c(c(C3CC3)nn1-c1ccc(C(=O)N(C)[C@H]3CC[C@@H](N4CCCC4)CC3)cc1F)CC2
CC(=O)Nc1nc2c(s1)-c1c(c(C3CC3)nn1-c1ccc(C(=O)N(C)[C@H]3CC[C@@H](N(C)CC4CCCC4)CC3)cc1F)CC2
CCCN1CCC(C(=O)N2CCC(n3nc(C4CC4)c4c3-c3sc(NC(C)=O)nc3CC4)CC2)CC1
CC(=O)Nc1nc2c(s1)-c1c(c(C3CC3)nn1-c1ccc(C(=O)N(C)[C@H]3CC[C@@H](N(C)CC4CCCC4)CC3)cc1C)CC2
CC(=O)Nc1nc2c(s1)-c1c(c(C3CC3)nn1-c1ccc(C(=O)NC[C@H]3CCCN3C3CCCC3)c(Cl)c1)CC2
CC(=O)Nc1nc2c(s1)-c1c(c(C3CC3)nn1-c1ccc(C(=O)N(C)[C@H]3CCN(C4CCCCC4)C3)cc1Cl)CC2
CC(=O)Nc1nc2c(s1)-c1c(c(C3(C)CC3)nn1-c1ccc(C(=O)NC3CCN(C)CC3)cc1Cl)CC2
CC(=O)Nc1nc2c(s1)-c1c(c(C3CC3)nn1-c1ccc(C(=O)N(C)[C@@H]3CCN(C4CCCC4)C3)cc1Cl)CC2
CC(=O)Nc1nc2c(s1)-c1c(c(C3CC3)nn1-c1ccc(C(=O)N(C)[C@H]3CC[C@@H](N4CCCC4)CC3)c(Cl)c1)CC2
CC(=O)Nc1nc2c(s1)-c1c(c(C3CC3)nn1-c1ccc(C(=O)N[C@H]3CC[C@@H](N4CCCCC4)CC3)cc1C)CC2
CC(=O)Nc1nc2c(s1)-c1c(c(C3CC3)nn1-c1ccc(C(=O)N(C)C3CCC(N4CCCCC4)CC3)c(F)c1)CC2 (centres undefined)
CC(=O)Nc1nc2c(s1)-c1c(c(C3CC3)nn1-c1ccc(C(=O)NC3CCN(C)CC3)cc1Cl)CC2
CC(=O)Nc1nc2c(s1)-c1c(c(C3CC3)nn1C1CCN(C(=O)N3CCC(N4CCCC4)CC3)CC1)CC2
CC(=O)Nc1nc2c(s1)-c1c(c(C3CC3)nn1-c1ccc(C(=O)NC3CCN(CC4CCCCC4)CC3)c(F)c1)CC2

pIC50, > 7.22:
CC(=O)Nc1nc2c(s1)-c1c(c(C3CC3)nn1-c1ccc(O)cc1Cl)CC2
